Key:
Type in all cases: functional
[1] = Antiplatelet activity in Mus musculus Laca (mouse) platelet assessed as bleeding time at 15 mg/kg, po after 1 hr by tail transaction bleeding test (reference value: 3.2 +/- 0.218 min)
[2] = Antiplatelet activity in Mus musculus Laca (mouse) platelet assessed as bleeding time at 7.5 mg/kg, po after 1 hr by tail transaction bleeding test (reference value: 3.2 +/- 0.218 min)
[3] = Antiplatelet activity in Mus musculus Laca (mouse) platelet assessed as bleeding time at 60 mg/kg, po after 1 hr by tail transaction bleeding test (reference value: 3.2 +/- 0.218 min)
[4] = Antiplatelet activity in Mus musculus Laca (mouse) platelet assessed as bleeding time at 30 mg/kg, po after 1 hr by tail transaction bleeding test (reference value: 3.2 +/- 0.218 min)
[5] = Antiplatelet activity in Mus musculus Laca (mouse) platelet assessed as bleeding time at 15 mg/kg, po after 1 hr by tail transaction bleeding test relative to aspirin

Row | Compound | Time [1] [min] | Time [2] [min] | Time [3] [min] | Time [4] [min] | fold change (FC) [5]
1 | COc1ccc(CNc2ccc(C3=NNC(=O)CC3)cc2)cc1OC | 5.6 | 4.2 | 7.1 | 6.5 | 
2 | COc1cc(CNc2ccc(C3=NNC(=O)CC3)cc2)cc(OC)c1OC | 5.2 | 4.4 | 6.5 | 6.1 | 
3 | O=C1CCC(c2ccc(NCc3ccccc3O)cc2)=NN1 | 7.4 | 4.4 | 9.2 | 8.5 | 
4 | COc1cc(CNc2ccc(C3=NNC(=O)CC3)cc2)ccc1O | 5.2 | 4.1 | 7.3 | 6.1 | 
5 | O=C1CCC(c2ccc(NCc3ccc(F)cc3)cc2)=NN1 | 4.9 | 3.8 | 7 | 6.2 | 
6 | O=C1CCC(c2ccc(NCc3c[nH]c4ccccc34)cc2)=NN1 | 8.3 | 5.5 | 9.7 | 9.2 | >2
7 | O=C1CCC(c2ccc(NCc3ccncc3)cc2)=NN1 | 5.3 | 4.3 | 7 | 6.2 | 
8 | O=C1CCC(c2ccc(NCc3cccnc3)cc2)=NN1 | 5.5 | 4.1 | 6.6 | 6.2 | 
9 | CC(=O)Oc1ccccc1C(=O)O [ASPIRIN] | 5.3 | 4.2 | 6.6 | 6.1 | 
